The record followed here is patent publication US8865725B2, “Substituted imidazopyrimidin-5(6H)-ones as allosteric modulators of MGLUR5 receptors” (Vanderbilt University, priority 2011, dated 2014).

One may read the Emax as the size of the effect at its maximum, as opposed to the concentration needed. For orientation: melting point means the temperature of the solid-liquid transition.

The subject of data set [1] is amphetamine-induced hyperlocomotion. As to the kind of experiment: Reversal of amphetamine-induced hyperlocomotion. Type of data set: in vivo, male Sprague-Dawley rats. Particulars: test compound by oral gavage in 20% HP-beta-CD; amphetamine sulfate 1 mg/kg sc; FIG. 4. The protocol: Locomotor activity was assessed as mean distance traveled (cm) in standard 16×16 photocell testing chambers measuring 43.2 cm (Length)×43.2 cm (Width)×30.5 cm (Height) (Med Associates, St. Albans, Vt.). Animals were habituated to individual activity chambers for at least 30 min prior to drug administration. Following administration of drug or vehicle, activity was recorded for a 90 minute time period. Data was expressed as the mean (±SEM) distance traveled recorded in 5 min intervals over the test period. The data was analyzed using repeated measures analysis of variance (ANOVA) followed by post-hoc testing using Dunnett's test, when appropriate. A difference was considered significant when p≦0.05. […]
The animals were habituated in Smart Open Field locomotor activity test chambers (Hamilton-Kinder, San Diego, Calif.) with 16×16 photobeams to automatically record locomotor activity for 30 min and then dosed with vehicle or test compound. […] At 60 min, all rats were injected subcutaneously with 1 mg/kg amphetamine or vehicle and then monitored for an additional 60 min. Animals are monitored for a total of 120 minutes. Data are expressed as changes in ambulation defined as total number of beam breaks per 5 min periods.
The data for the dose-response studies were analyzed by a between-group analysis of variance. […]

For data set [2], the target named is human mGluR5a receptor (Homo sapiens, UniProt P41594). The data set can be described thus: Cell-based functional assay (Ca2+ mobilization, FDSS) for positive allosteric modulation of mGluR5. Conditions: for EC50: potentiation in presence of EC20 glutamate; for Emax: maximum % effect in concentration-response curve, as percent of response to maximally effective glutamate concentration. The protocol:
The mGluR5 activity was determined using the metabotropic glutamate receptor activity assays in human embryonic kidney cells as described herein, wherein the human embryonic kidney cells were transfected with human mGluR5. The compounds in Table I were synthesized with methods identical or analogous to those shown herein. The Synthetic Route Reference indicated in Table I refers to the Reaction Scheme number described above. The requisite starting materials were commercially available, described in the literature, or readily synthesized by one skilled in the art of organic synthesis.
Human mGluR5a cDNA in pCMV6-XL6 mammalian expression plasmid was purchased from OriGene Technologies, Inc. (catalogue number SC326357) and subcloned into pcDNA3.1(−). […] Monoclones were named for the species (“H” for human) plus the location on the plate (e.g. “10H”).
HEK cells transfected with the human mGluR5a receptor (H10H or H12H cell line) were plated at 15,000 cells/well in clear-bottomed poly-D-lysine-coated assay plates (BD Falcon) in glutamate-glutamine-free growth medium and incubated overnight at 37° C. and 5% CO2. Cell-lines used were either the H10H or H12H cell-lines expressing the human mGluR5 receptor. The following day, the growth medium was removed and the cells were washed with assay buffer containing 1× Hank's balanced salt solution (Invitrogen, Carlsbad, Calif.), 20 mM HEPES, 2.5 mM probenecid, pH 7.4 and left with 20 μL of this reagent. Following this step, the cells were loaded with calcium indicator dye, fluo-4 AM, to a final concentration of 2 μM and incubated for 40-45 min at 37° C. The dye solution was removed and replaced with assay buffer. Cell plates were held for 10-15 min at room temperature and were then loaded into the Functional Drug Screening System 6000 (FDSS 6000, Hamamatsu, Japan).
After establishment of a fluorescence baseline for about 3 seconds, the compounds of the present invention were added to the cells, and the response in cells was measured. 2.3 minutes later an EC20 concentration of the mGluR5 receptor agonist glutamate was added to the cells, and the response of the cells was measured for about 1.7 minutes. All test compounds were dissolved and diluted to a concentration of 10 mM in 100% DMSO and then serially diluted into assay buffer for a 2× stock solution in 0.6% DMSO; stock compounds were then added to the assay for a final DMSO concentration of 0.3% after the first addition to the assay well. Calcium fluorescence measures were recorded as fold over basal fluorescence; raw data was then normalized to the maximal response to glutamate.
The concentration-response curves of compounds of the present invention, obtained in the presence of EC20 of mGluR5 receptor agonist glutamate to determine positive allosteric modulation, were generated using Microsoft Excel with IDBS XLfit add-ins. The raw data file containing all time points was used as the data source in the analysis template. This was saved by the FDSS as a tab-delimitted text file. Data were normalized using a static ratio function (F/F0) for each measurement of the total 350 values per well divided by each well's initial value. Data was then reduced as to peak amplitudes (Max—Initial Min) using a time range that starts approximately 1 second after the glutamate EC20 addition and continues for approximately 40 seconds. This is sufficient time to capture the peak amplitude of the cellular Calcium response. Individual amplitudes were expressed as % EMax by multiplying each amplitude by 100 and then dividing the product by the mean of the amplitudes derived from the glutamate ECMax-treated wells. pEC50 values for test compounds were generated by fitting the normalized values versus the log of the test compound concentration (in mol/L) using a 4 parameter logistic equation where none of the parameters were fixed.

The mark [3] stands for this setting: HEK cells transfected with human mGluR5a (H10H or H12H), concentration in mol/L, read-out: pEC50 (converted).
Setting [4] is: HEK cells transfected with human mGluR5a (H10H or H12H), read-out: EC50.

Like-named read-outs stand apart in the source and are kept apart here. Some results are limits rather than exact numbers.

human mGluR5a receptor, sequence (P41594 21-1180 isoform P41594-2 limits assumed): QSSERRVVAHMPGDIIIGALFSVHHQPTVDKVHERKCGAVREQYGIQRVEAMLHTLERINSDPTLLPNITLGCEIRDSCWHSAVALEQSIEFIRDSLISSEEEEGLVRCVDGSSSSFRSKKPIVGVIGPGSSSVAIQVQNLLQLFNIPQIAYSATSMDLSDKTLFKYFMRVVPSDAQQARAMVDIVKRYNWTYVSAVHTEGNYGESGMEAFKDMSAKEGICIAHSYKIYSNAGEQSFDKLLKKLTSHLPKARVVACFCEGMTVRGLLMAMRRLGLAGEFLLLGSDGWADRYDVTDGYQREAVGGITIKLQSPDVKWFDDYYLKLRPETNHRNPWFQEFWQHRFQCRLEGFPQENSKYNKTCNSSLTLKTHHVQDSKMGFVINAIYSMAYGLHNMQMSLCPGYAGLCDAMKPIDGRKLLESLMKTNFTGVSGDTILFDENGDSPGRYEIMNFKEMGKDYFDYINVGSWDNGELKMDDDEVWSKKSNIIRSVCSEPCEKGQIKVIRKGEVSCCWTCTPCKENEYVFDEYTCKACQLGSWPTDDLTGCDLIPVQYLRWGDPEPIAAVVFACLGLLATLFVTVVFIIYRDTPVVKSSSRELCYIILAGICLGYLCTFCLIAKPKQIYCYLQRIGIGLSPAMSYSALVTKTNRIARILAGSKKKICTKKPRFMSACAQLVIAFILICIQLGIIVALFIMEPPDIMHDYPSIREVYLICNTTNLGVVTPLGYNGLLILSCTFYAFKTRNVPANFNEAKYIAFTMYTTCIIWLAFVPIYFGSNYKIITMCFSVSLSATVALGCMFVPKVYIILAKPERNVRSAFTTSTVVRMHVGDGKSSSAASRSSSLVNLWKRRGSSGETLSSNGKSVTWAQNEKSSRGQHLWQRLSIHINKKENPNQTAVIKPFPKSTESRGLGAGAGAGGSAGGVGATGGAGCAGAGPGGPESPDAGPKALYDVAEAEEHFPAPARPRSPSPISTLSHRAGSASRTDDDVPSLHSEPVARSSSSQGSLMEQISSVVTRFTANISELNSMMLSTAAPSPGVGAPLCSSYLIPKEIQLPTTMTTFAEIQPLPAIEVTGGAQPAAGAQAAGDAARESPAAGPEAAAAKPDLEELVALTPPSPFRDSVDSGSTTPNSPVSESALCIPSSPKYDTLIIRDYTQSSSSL

Take `O=C1N(c2ccc(F)cc2)CCc2nc(COc3ccccc3)cn21` [6-(4-fluorophenyl)-2-(phenoxymethyl)-7,8-dihydroimidazo[1,2-c]pyrimidin-5(6H)-one]: the “reversal of amphetamine-induced hyperlocomotion” value in data set [1] was “Dose-dependent results for reversal of amphetamine-induced hyperlocomotion”.

`O=C1N(c2cccc(F)c2)CCc2nc(COc3ccccc3)cn21` [compound 32] returned a melting point of over 300 °C. Moreover, the EC50 in data set [2] (EC50 (nM), HEK cells transfected with human mGluR5a (H10H or H12H)) was 226 nM. Further, the EC50 in data set [2] (setting [3]) was 245 nM. Moreover, in data set [2], the Emax is 70%.

`O=C1N(c2ccc(F)c(F)c2)CCc2nc(COc3ccccc3)cn21` [compound 33] had a melting point of 165.4 °C. Also, the EC50 in data set [2] (setting [3]) is 102 nM. Further, the EC50 in data set [2] (setting [4]) was 97 nM. In data set [2], this molecule had an Emax of 75%.

Molecule `O=C1N(c2ccc(F)cc2)CCc2nc(COc3cccc(F)c3)cn21` [compound 34] returned a melting point of 141.1 °C. The EC50 in data set [2] (setting [4]) was found to be 65 nM. This molecule yielded an Emax in data set [2] of 73%. In addition, in data set [2] (pEC50, HEK cells transfected with human mGluR5a (H10H or H12H), concentration in mol/L), the EC50 was 67.6 nM.

With `O=C1N(c2ccc(F)cc2)CCc2nc(COc3ccc(F)cc3)cn21` [compound 35, 2-(4-fluoro-phenoxymethyl)-6-(4-fluoro-phenyl)-7,8-dihydro-6H-imidazo[1,2-c]pyrimidin-5-one], the melting point is 182.3 °C. In data set [2] (setting [3]), the EC50 was 170 nM. For the same molecule, the EC50 in data set [2] (setting [4]) came to 188 nM. Also, in data set [2], the Emax came out at 68%.

Consider `Cc1cccc(OCc2cn3c(n2)CCN(c2ccc(F)cc2)C3=O)c1` [compound 37, 6-(4-fluoro-phenyl)-2-m-tolyloxymethyl-7,8-dihydro-6H-imidazo[1,2-c]pyrimidin-5-one], for which the melting point was found to be 169.3 °C. For the same molecule, the EC50 in data set [2] (setting [3]) was 204 nM. In data set [2] (setting [4]), the EC50 was determined as 191 nM. Moreover, the Emax in data set [2] amounted to 48%.

Consider `O=C1N(c2ccc(F)cn2)CCc2nc(COc3ccccc3)cn21` [compound 39], for which the melting point turned out to be 135 °C. Further, the EC50 in data set [2] (setting [3]) was 316 nM. Further, the EC50 in data set [2] (setting [4]) came out at 389 nM. In data set [2], this molecule had an Emax of 64%.

The molecule `Cc1cc(N2CCc3nc(COc4ccccc4)cn3C2=O)ncc1F` [compound 40] gave a melting point of 196.5 °C. Further, the EC50 in data set [2] (setting [3]) was 269 nM. For the same molecule, the EC50 in data set [2] (setting [4]) worked out at 351 nM. In data set [2], the Emax was 61%.

With `O=C1N(c2ccc(F)cc2)CCc2nc(COc3ccccc3)c(Cl)n21` [compound 42, 3-chloro-6-(4-fluoro-phenyl)-2-phenoxymethyl-7,8-dihydro-6H-imidazo[1,2-c]pyrimidin-5-one], the melting point was determined as 200.1 °C. In data set [2] (setting [4]), the EC50 is over 30200 nM. This molecule also showed an Emax in data set [2] of 17%.

`Cc1c(COc2ccccc2)nc2n1C(=O)N(c1ccc(F)cc1)CC2` [compound 44, 6-(4-fluoro-phenyl)-3-methyl-2-phenoxymethyl-7,8-dihydro-6H-imidazo[1,2-c]pyrimidin-5-one] had a melting point of 160.4 °C. Besides, the EC50 in data set [2] (setting [4]) is over 30200 nM. Further, the Emax in data set [2] amounted to 20%.
